Reference: US20250388574A1, “HETEROCYCLIC COMPOUNDS AS TRIGGERING RECEPTOR EXPRESSED ON MYELOID CELLS 2 AGONISTS AND METHODS OF USE” (AMGEN INC., priority 2020, published 2025)

Target: hTREM2 (Homo sapiens, UniProt Q9NZC2)
Test: Phospho-Syk AlphaScreen/AlphaLISA assay in TREM2 and DAP12 overexpressing HEK293 cells (Example A1)
Assay type: cell-based
Set-up: expressed in transfected cells
Settings: HEK293 cells; for EC50: read-out: hTREM2 EC50
Procedure, shortened: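 Agonism read as Syk phosphorylation: compounds in 1% DMSO applied 45 min at room temperature to TREM2/DAP12-HEK293 cells after 20 h culture. Lysis buffer with phosphatase inhibitors and anti-phospho-Syk plus biotinylated anti-Syk antibodies, then AlphaLISA beads (680 nm excitation); percent of control computed from antibody/isotype wells, curves fitted sigmoidally.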

Sequence of hTREM2 (Q9NZC2 19-230): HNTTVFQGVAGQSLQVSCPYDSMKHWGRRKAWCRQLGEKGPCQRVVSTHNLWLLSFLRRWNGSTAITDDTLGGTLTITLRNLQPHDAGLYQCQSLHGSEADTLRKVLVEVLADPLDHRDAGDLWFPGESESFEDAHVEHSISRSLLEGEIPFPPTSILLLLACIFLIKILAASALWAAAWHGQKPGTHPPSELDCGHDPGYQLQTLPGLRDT
Sequence of hTREM2 (O43914 22-113 partner): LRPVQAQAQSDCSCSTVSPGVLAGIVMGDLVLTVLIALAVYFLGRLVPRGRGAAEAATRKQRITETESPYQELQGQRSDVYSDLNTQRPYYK

Compound	Emax	EC50 [nM]
Cc1nc2cc(N3CC[C@@H](C(F)(F)F)C3)nc(-c3ccc(Cl)cc3F)c2c(=O)n1C [Example 256, (R)-5-(4-chloro-2-fluorophenyl)-2,3-dimethyl-7-(3-(trifluoromethyl)pyrrolidin-1-yl)pyrido[4,3-d]pyrimidin-4(3H)-one]	++++ (Emax>300)	3000 to 100000
Cc1nc2cc(N3CC[C@H](C(F)(F)F)C3)nc(-c3ccc(Cl)cc3F)c2c(=O)n1C [Example 257, (S)-5-(4-chloro-2-fluorophenyl)-2,3-dimethyl-7-(3-(trifluoromethyl)pyrrolidin-1-yl)pyrido[4,3-d]pyrimidin-4(3H)-one]	++ (Emax>100 and ≤200)	500 to 3000
Cc1c([C@H]2CN(c3cc4nc(C)n(C)c(=O)c4c(-c4ccc(Cl)cc4F)n3)CCO2)cnn1C [Example 262, (S)-5-(4-chloro-2-fluorophenyl)-7-(2-(1,5-dimethyl-1H-pyrazol-4-yl)morpholino)-2,3-dimethylpyrido[4,3-d]pyrimidin-4(3H)-one]	+++ (Emax>200 and ≤300)	500 to 3000
Cc1nn(C)cc1[C@H]1CN(c2cc3nc(C)n(C)c(=O)c3c(-c3ccc(Cl)cc3F)n2)CCO1 [Example 263, (S)-5-(4-chloro-2-fluorophenyl)-7-(2-(1,3-dimethyl-1H-pyrazol-4-yl)morpholino)-2,3-dimethylpyrido[4,3-d]pyrimidin-4(3H)-one]	+++ (Emax>200 and ≤300)	50 to 500
CCn1c(C)nc2cc(N3CCO[C@H](c4noc(C)n4)C3)nc(-c3ccc(Cl)cc3F)c2c1=O [Example 264, (S)-5-(4-chloro-2-fluorophenyl)-3-ethyl-2-methyl-7-(2-(5-methyl-1,2,4-oxadiazol-3-yl)morpholino)pyrido[4,3-d]pyrimidin-4(3H)-one]	+++ (Emax>200 and ≤300)	50 to 500
Cc1nc2cc(N3CCO[C@H](c4ccnc(C(F)(F)F)c4)C3)nc(-c3ccc(Cl)cc3F)c2c(=O)n1C [Example 265, (R)-5-(4-chloro-2-fluorophenyl)-2,3-dimethyl-7-(2-(2-(trifluoromethyl)pyridin-4-yl)morpholino)pyrido[4,3-d]pyrimidin-4(3H)-one]	+++ (Emax>200 and ≤300)	500 to 3000
COc1cc([C@@H]2C[C@@H](c3cc4nc(C)n(C)c(=O)c4c(-c4ccc(Cl)cc4F)n3)CCO2)ccn1 [Example 268, 5-(4-chloro-2-fluorophenyl)-7-((2S,4S)-2-(2-methoxypyridin-4-yl)tetrahydro-2H-pyran-4-yl)-2,3-dimethylpyrido[4,3-d]pyrimidin-4(3H)-one]	++++ (Emax>300)	50 to 500
Cc1nc2cc(N3CCO[C@H]([C@@H]4CCO4)C3)nc(-c3ccc(Cl)cc3F)c2c(=O)n1C [Example 269, 5-(4-chloro-2-fluorophenyl)-2,3-dimethyl-7-((S)-2-((S)-oxetan-2-yl)morpholino)pyrido[4,3-d]pyrimidin-4(3H)-one]	++++ (Emax>300)	500 to 3000
Cc1nnc([C@H]2CN(c3cc4nc(C)n(C)c(=O)c4c(-c4ccc(Cl)cc4F)n3)CCO2)o1 [Example 271, (R)-5-(4-chloro-2-fluorophenyl)-2,3-dimethyl-7-(2-(5-methyl-1,3,4-oxadiazol-2-yl)morpholino)pyrido[4,3-d]pyrimidin-4(3H)-one]	+++ (Emax>200 and ≤300)	50 to 500
Cc1ccc([C@H]2C[C@@H](c3cc4nc(C)n(C)c(=O)c4c(-c4ccc(Cl)cc4F)n3)CCO2)cn1 [Example 273, 5-(4-chloro-2-fluorophenyl)-2,3-dimethyl-7-((2R,4S)-2-(6-methylpyridin-3-yl)tetrahydro-2H-pyran-4-yl)pyrido[4,3-d]pyrimidin-4(3H)-one]	++++ (Emax>300)	50 to 500
Cc1nc2cc([C@@H]3CCO[C@H](c4cnn(C)c4)C3)nc(-c3ccc(Cl)cc3F)c2c(=O)n1C [Example 275, 5-(4-chloro-2-fluorophenyl)-2,3-dimethyl-7-((2S,4R)-2-(1-methyl-1H-pyrazol-4-yl)tetrahydro-2H-pyran-4-yl)pyrido[4,3-d]pyrimidin-4(3H)-one]	++ (Emax>100 and ≤200)	< 50
ethyl (2S,4S)-4-(5-(4-chloro-2-fluorophenyl)-2,3-dimethyl-4-oxo-3,4-dihydropyrido[4,3-d]pyrimidin-7-yl)tetrahydro-2H-pyran-2-carboxylate and ethyl (2R,4R)-4-(5-(4-chloro-2-fluorophenyl)-2,3-dimethyl-4-oxo-3,4-dihydropyrido[4,3-d]pyrimidin-7-yl)tetrahydro-2H-pyran-2-carboxylate [Example 168]	+++ (Emax>200 and ≤300)	3000 to 100000

Second part, the compound after the results:

Emax	EC50 [nM]	Compound
+++ (Emax>200 and ≤300)	3000 to 100000	Cc1nc2cc(N3CC[C@H](N(C)C)C3)nc(-c3ccc(Cl)cc3F)c2c(=O)n1C [Example 255, (S)-5-(4-chloro-2-fluorophenyl)-7-(3-(dimethylamino)pyrrolidin-1-yl)-2,3-dimethylpyrido[4,3-d]pyrimidin-4(3H)-one]
+++ (Emax>200 and ≤300)	3000 to 100000	Cc1nc2cc(N3CC[C@@H](C(F)F)C3)nc(-c3ccc(Cl)cc3F)c2c(=O)n1C [Example 258, (R)-5-(4-chloro-2-fluorophenyl)-7-(3-(difluoromethyl)pyrrolidin-1-yl)-2,3-dimethylpyrido[4,3-d]pyrimidin-4(3H)-one]
++ (Emax>100 and ≤200)	3000 to 100000	Cc1nc2cc(N3CC[C@H](C(F)F)C3)nc(-c3ccc(Cl)cc3F)c2c(=O)n1C [Example 259, (S)-5-(4-chloro-2-fluorophenyl)-7-(3-(difluoromethyl)pyrrolidin-1-yl)-2,3-dimethylpyrido[4,3-d]pyrimidin-4(3H)-one]
++++ (Emax>300)	3000 to 100000	Cc1nc2cc(N3CC[C@@H](c4cccnc4)C3)nc(-c3ccc(Cl)cc3F)c2c(=O)n1C [Example 260, (S)-5-(4-chloro-2-fluorophenyl)-2,3-dimethyl-7-(3-(pyridin-3-yl)pyrrolidin-1-yl)pyrido[4,3-d]pyrimidin-4(3H)-one]
++++ (Emax>300)	3000 to 100000	Cc1nc2cc(N3CC[C@H](c4cccnc4)C3)nc(-c3ccc(Cl)cc3F)c2c(=O)n1C [Example 261, (R)-5-(4-chloro-2-fluorophenyl)-2,3-dimethyl-7-(3-(pyridin-3-yl)pyrrolidin-1-yl)pyrido[4,3-d]pyrimidin-4(3H)-one]
+++ (Emax>200 and ≤300)	< 50	Cc1nc2cc(N3CCO[C@@H](c4ccnc(C(F)(F)F)c4)C3)nc(-c3ccc(Cl)cc3F)c2c(=O)n1C [Example 266, (S)-5-(4-chloro-2-fluorophenyl)-2,3-dimethyl-7-(2-(2-(trifluoromethyl)pyridin-4-yl)morpholino)pyrido[4,3-d]pyrimidin-4(3H)-one]
+++ (Emax>200 and ≤300)	< 50	COc1cc([C@@H]2C[C@H](c3cc4nc(C)n(C)c(=O)c4c(-c4ccc(Cl)cc4F)n3)CCO2)ccn1 [Example 267, 5-(4-chloro-2-fluorophenyl)-7-((2S,4R)-2-(2-methoxypyridin-4-yl)tetrahydro-2H-pyran-4-yl)-2,3-dimethylpyrido[4,3-d]pyrimidin-4(3H)-one]
+++ (Emax>200 and ≤300)	500 to 3000	Cc1nc2cc(N3CCO[C@@H]([C@@H]4CCO4)C3)nc(-c3ccc(Cl)cc3F)c2c(=O)n1C [Example 270, 5-(4-chloro-2-fluorophenyl)-2,3-dimethyl-7-((R)-2-((S)-oxetan-2-yl)morpholino)pyrido[4,3-d]pyrimidin-4(3H)-one]
++++ (Emax>300)	50 to 500	Cc1ccc([C@@H]2C[C@@H](c3cc4nc(C)n(C)c(=O)c4c(-c4ccc(Cl)cc4F)n3)CCO2)cn1 [Example 272, 5-(4-chloro-2-fluorophenyl)-2,3-dimethyl-7-((2S,4S)-2-(6-methylpyridin-3-yl)tetrahydro-2H-pyran-4-yl)pyrido[4,3-d]pyrimidin-4(3H)-one]
++++ (Emax>300)	50 to 500	Cc1ccc([C@@H]2C[C@H](c3cc4nc(C)n(C)c(=O)c4c(-c4ccc(Cl)cc4F)n3)CCO2)cn1 [Example 274, 5-(4-chloro-2-fluorophenyl)-2,3-dimethyl-7-((2S,4R)-2-(6-methylpyridin-3-yl)tetrahydro-2H-pyran-4-yl)pyrido[4,3-d]pyrimidin-4(3H)-one]
++++ (Emax>300)	50 to 500	ethyl (2R,4S)-4-(5-(4-chloro-2-fluorophenyl)-2,3-dimethyl-4-oxo-3,4-dihydropyrido[4,3-d]pyrimidin-7-yl)tetrahydro-2H-pyran-2-carboxylate and ethyl (2S,4R)-4-(5-(4-chloro-2-fluorophenyl)-2,3-dimethyl-4-oxo-3,4-dihydropyrido[4,3-d]pyrimidin-7-yl)tetrahydro-2H-pyran-2-carboxylate [Example 167]
